The source of these data is PubChem BioAssay (NCI).

Holding throughout (test): DTP human tumour cell line panel, 48 h
The test system of test [1] is HCT-15 colon.
For test [2], the system named is HT29 colon.
The subject of test [3] is HOP-62 NSCLC.
The subject of test [4] is PC-3 prostate.
The test system of test [5] is SNB-19 CNS.
Test [6] deals with SW-620 colon.
Test [7] relates to CAKI-1 renal.
Test [8] relates to SK-MEL-28 melanoma.
The subject of test [9] is NCI-H522 lung.
Test [10] deals with OVCAR-8 ovarian.

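Grown in 96-well plates, cells were treated for 48 hours with each compound at five concentrations. Insufficient inhibition: endpoint recorded as highest concentration tested. Abbreviation: GI50, concentration required for 50% inhibition of growth. Definition used: TGI = concentration required for complete inhibition of growth.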 Some results are limits rather than exact numbers.

With `OCCCCC#Cc1ccccc1C#Cc1cccnc1`, the GI50 was 21.9 µM in test [1]; 22.3 µM in test [2]; 20 µM in [3]; 36.3 µM in test [4]; 49.3 µM in [5]; 45.2 µM in test [6]. Also, the GI50 in [7] is 29.1 µM; in test [8], 23.7 µM; in [9], 41.9 µM; in test [10], 30.7 µM. Besides, the TGI in test [1] was 74.1 µM; in [2], 87.8 µM; in test [3] it was 57.4 µM; in test [4] it was over 100 µM; in test [5], over 100 µM; in test [6], over 100 µM. Also, the TGI is 83.5 µM in test [7], over 100 µM in test [8], over 100 µM in test [9] and over 100 µM in [10].

Turning to `CCC[CH2][Sn]([CH2]CCC)([CH2]CCC)/[C](=C/[Si](C)(C)c1ccccc1)c1ccc2c(c1)OCO2`, the GI50 in [1] was 20.5 µM; in [2], 19.2 µM; in test [3] it was 23.7 µM; in test [4], 31.4 µM; in test [5] it was 21.3 µM; in test [6], 20.9 µM. In addition, the GI50 is 16 µM in [7], 16.2 µM in [8], 9.71 µM in test [9] and 19.1 µM in test [10]. For the same molecule, the concentration for total growth inhibition (TGI) in test [1] is 51.8 µM; in test [2], 55.3 µM; in test [3] it was 50.6 µM; in test [4], over 100 µM; in test [5], 49.7 µM; in test [6] it was 59.3 µM. The TGI in [7] is 48.2 µM; in test [8], 33.4 µM; in test [9] it was over 100 µM; in test [10] it was 37.9 µM.

For `CCc1ccc2oc(=O)ccc2c1`, the TGI in test [1], in test [2], in test [3], in test [4], in test [5] and in test [6] was over 100 µM throughout. Besides, the TGI in test [7], in test [8], in test [9] and in test [10] was over 100 µM each time.

For the molecule `CCCCC#Cc1c(I)n(C2OC(CO[Si](C)(C)C(C)(C)C)C3OC(C)(C)OC32)c(=O)n(C(=O)c2ccccc2)c1=O` (stereo not given), the GI50 in test [1] is 1.63 µM; in [2], 28.4 µM; in test [3] it was 10.7 µM; in [4] it was 10.3 µM; in [5], 14.1 µM; in [6], 2.33 µM. In addition, the GI50 in [7] was 3.67 µM; in [8], 6.94 µM; in test [9], 1.84 µM; in test [10] it was 5.61 µM. The concentration for total growth inhibition (TGI) in test [1] is over 100 µM; in test [2] it was over 100 µM; in test [3], 23 µM; in test [4], 22.9 µM; in test [5] it was 28.4 µM; in test [6], 6.03 µM. The TGI was 18.4 µM in [7], 22.5 µM in [8], 3.93 µM in test [9] and 18.6 µM in test [10].

For `Nc1c(C(=O)c2cccc(C(O)CO)c2)cnn1-c1ccc(F)cc1` (stereo not given), the GI50 in test [1], in test [2], in test [3], in [4], in test [5] and in test [6] was over 25 µM throughout. Also, the GI50 in test [7], in [8], in test [9] and in test [10] was over 25 µM each time. For the same molecule, the TGI in test [1], in test [2], in test [3], in [4], in [5] and in test [6] was over 25 µM each time. Besides, the TGI in test [7], in [8], in test [9] and in [10] was over 25 µM throughout.

As to `O=C1CS/C(=N/S(=O)(=O)c2ccc(N3N=C4c5ccccc5CC4C3c3cccs3)cc2)N1C(=O)c1ccccc1` (stereo not given), the GI50 is 56.3 µM in test [1]; 76.1 µM in test [2]; 32.9 µM in [3]; 38.1 µM in test [4]; 77 µM in test [5]; 38.5 µM in test [6]. Also, the GI50 in test [7] is 63.9 µM; in test [8], over 100 µM; in [9] it was 60.1 µM; in test [10], 45.7 µM. Further, the TGI in test [1] is over 100 µM; in [2], over 100 µM; in [3], 63 µM; in test [4] it was over 100 µM; in test [5], over 100 µM; in test [6], over 100 µM. Further, the total growth inhibition concentration (TGI) in [7], in test [8], in test [9] and in [10] was over 100 µM in each case.

For `Cc1nc(NS(=O)(=O)c2ccc(NCN3C(=O)c4ccccc4C3=O)cc2)oc1C`, the GI50 in test [1], in test [2], in test [3], in [4], in test [5] and in test [6] was over 100 µM in each case. Also, the GI50 in test [7], in test [8], in test [9] and in test [10] was over 100 µM in each case. Besides, the TGI in test [1], in test [2], in test [3], in test [4], in test [5] and in test [6] was over 100 µM in each case. In addition, the total growth inhibition concentration (TGI) in test [7], in test [8], in test [9] and in test [10] was over 100 µM in each case.

For the molecule `CCCCCCCCCCCNC=O`, the TGI in test [1] is 71.8 µM; in [2], over 100 µM; in [3], over 100 µM; in test [4] it was 66.9 µM; in test [5], over 100 µM; in [6] it was over 100 µM. Also, the TGI in [7] was over 100 µM; in test [8] it was over 100 µM; in test [9], 85.3 µM; in test [10], over 100 µM.

Broadly, the GI50 is the concentration at which growth is held to half of that of the control. In general, TGI refers to the concentration giving total growth inhibition. Read a high TGI as lower sensitivity of the cells.
